Test results: ChEMBL document CHEMBL3885861, “Open TG-GATES”

Organism: Rattus norvegicus
Experiment: Open TG-GATES - Regimen: Daily Repeat
Type: toxicity, organism-based, Sprague-Dawley
Parameters: regimen Daily Repeat, gender Male, age 6 weeks
Details: in vivo, iv, route intravenous injection; for APTT / Bas / Eos / Fbg / Hb / Ht / Lym / MCH / MCHC / MCV / Mono / Neu / PT / Plat / RBC / Ret / WBC: tissue Blood; for KIDNEY_L / KIDNEY_R / KIDNEY_TOTAL: tissue Kidney; for LIVER: tissue Liver; for ALP / ALT / AST / BUN / CRE / Ca / Cl / DBIL / GLC / IP / K / LDH / Na / PL / RALB / TBIL / TC / TG / TP / gamma-GTP: tissue Plasma
[1] = 0 mg/kg, 72 h, dose level Control, time 3 day
[2] = 0 mg/kg, […], dose level Control, time 7 day
[3] = 0 mg/kg, […], dose level Control, time 14 day
[4] = 0 mg/kg, […], dose level Control, time 28 day
[5] = 300 mg/kg, 72 h, dose level Low, time 3 day
[6] = 300 mg/kg, […], dose level Low, time 7 day
[7] = 300 mg/kg, […], dose level Low, time 14 day
[8] = 300 mg/kg, […], dose level Low, time 28 day

CC(=O)OCC1=C(C(=O)O)N2C(=O)[C@@H](NC(=O)Cc3cccs3)[C@H]2SC1 [CEPHALOTHIN]
TERMINAL_BW [1]: 230.4 g
APTT [1]: 21.2 s
Bas [1]: 0%
Eos [1]: 0.8%
Fbg [1]: 292.4 mg/dL
Hb [1]: 13.4 g/dL
Ht [1]: 38.5%
Lym [1]: 82%
MCH [1]: 21.2 pg
MCHC [1]: 34.9%
MCV [1]: 60.8 fL
Mono [1]: 3.4%
Neu [1]: 13%
PT [1]: 16.1 s
Plat [1]: 120.3 x10_4/uL
RBC [1]: 633 x10_4/ul
Ret [1]: 6.8%
WBC [1]: 100.4 x10_2/uL
KIDNEY_L [1]: 1 g
KIDNEY_R [1]: 1 g
KIDNEY_TOTAL [1]: 2 g
LIVER [1]: 10.5 g
ALP [1]: 1655.6 IU/L
ALT [1]: 38.8 IU/L
AST [1]: 69.2 IU/L
BUN [1]: 18 mg/dL
CRE [1]: 0.2 mg/dL
Ca [1]: 10.8 mg/dL
Cl [1]: 105.4 meq/L
DBIL [1]: 0 mg/dL
GLC [1]: 185.8 mg/dL
IP [1]: 6.9 mg/dL
K [1]: 4.6 meq/L
LDH [1]: 153.6 IU/L
Na [1]: 140.8 meq/L
PL [1]: 147.2 mg/dL
RALB [1]: 3 g/dL
TBIL [1]: 0.002 mg/dL
TC [1]: 79.2 mg/dL
TG [1]: 108.4 mg/dL
TP [1]: 5.3 g/dL
gamma-GTP [1]: 1.6 IU/L
TERMINAL_BW [2]: 261.3 g
TERMINAL_BW [3]: 318.6 g
TERMINAL_BW [4]: 376.6 g
APTT [2]: 22.6 s
Bas [2]: 0%
Eos [2]: 0.8%
Fbg [2]: 303 mg/dL
Hb [2]: 13.2 g/dL
Ht [2]: 37.9%
Lym [2]: 78.6%
MCH [2]: 20.5 pg
MCHC [2]: 34.8%
MCV [2]: 59 fL
Mono [2]: 2.2%
Neu [2]: 17.8%
PT [2]: 17 s
Plat [2]: 139.9 x10_4/uL
RBC [2]: 642.6 x10_4/ul
Ret [2]: 5.7%
WBC [2]: 107.7 x10_2/uL
APTT [3]: 23.5 s
Bas [3]: 0%
Eos [3]: 1%
Fbg [3]: 268.2 mg/dL
Hb [3]: 14.2 g/dL
Ht [3]: 39.3%
Lym [3]: 76.4%
MCH [3]: 20.3 pg
MCHC [3]: 36.1%
MCV [3]: 56.2 fL
Mono [3]: 3%
Neu [3]: 18.8%
PT [3]: 16.1 s
Plat [3]: 126.1 x10_4/uL
RBC [3]: 698.6 x10_4/ul
Ret [3]: 4.8%
WBC [3]: 110.4 x10_2/uL
APTT [4]: 26.5 s
Bas [4]: 0%
Eos [4]: 1%
Fbg [4]: 291.4 mg/dL
Hb [4]: 15.6 g/dL
Ht [4]: 42.3%
Lym [4]: 83.6%
MCH [4]: 19.8 pg
MCHC [4]: 36.9%
MCV [4]: 53.6 fL
Mono [4]: 2.6%
Neu [4]: 12%
PT [4]: 16.3 s
Plat [4]: 108 x10_4/uL
RBC [4]: 789.2 x10_4/ul
Ret [4]: 2.4%
WBC [4]: 108.4 x10_2/uL
KIDNEY_L [2]: 1 g
KIDNEY_R [2]: 1.1 g
KIDNEY_TOTAL [2]: 2.1 g
KIDNEY_L [3]: 1.2 g
KIDNEY_R [3]: 1.3 g
KIDNEY_TOTAL [3]: 2.5 g
KIDNEY_L [4]: 1.3 g
KIDNEY_R [4]: 1.3 g
KIDNEY_TOTAL [4]: 2.5 g
LIVER [2]: 11.4 g
LIVER [3]: 12.9 g
LIVER [4]: 14.2 g
ALP [2]: 1413.8 IU/L
ALT [2]: 35 IU/L
AST [2]: 71.2 IU/L
BUN [2]: 18.6 mg/dL
CRE [2]: 0.2 mg/dL
Ca [2]: 10.7 mg/dL
Cl [2]: 107 meq/L
DBIL [2]: 0 mg/dL
GLC [2]: 182 mg/dL
IP [2]: 7 mg/dL
K [2]: 4.4 meq/L
LDH [2]: 177.6 IU/L
Na [2]: 142 meq/L
PL [2]: 121.8 mg/dL
RALB [2]: 2.9 g/dL
TBIL [2]: 0.004 mg/dL
TC [2]: 64.8 mg/dL
TG [2]: 87.6 mg/dL
TP [2]: 5.3 g/dL
gamma-GTP [2]: 1.8 IU/L
ALP [3]: 1425 IU/L
ALT [3]: 34.4 IU/L
AST [3]: 63.4 IU/L
BUN [3]: 16.8 mg/dL
CRE [3]: 0.2 mg/dL
Ca [3]: 10.9 mg/dL
Cl [3]: 104.4 meq/L
DBIL [3]: 0 mg/dL
GLC [3]: 185.8 mg/dL
IP [3]: 6.9 mg/dL
K [3]: 4.4 meq/L
LDH [3]: 119.2 IU/L
Na [3]: 141.4 meq/L
PL [3]: 138 mg/dL
RALB [3]: 3.1 g/dL
TBIL [3]: 0.01 mg/dL
TC [3]: 67.8 mg/dL
TG [3]: 96.8 mg/dL
TP [3]: 5.8 g/dL
gamma-GTP [3]: 3.2 IU/L
ALP [4]: 967 IU/L
ALT [4]: 31.8 IU/L
AST [4]: 64.2 IU/L
BUN [4]: 18.2 mg/dL
CRE [4]: 0.2 mg/dL
Ca [4]: 10.4 mg/dL
Cl [4]: 105.4 meq/L
DBIL [4]: 0 mg/dL
GLC [4]: 188.6 mg/dL
IP [4]: 5.9 mg/dL
K [4]: 4.3 meq/L
LDH [4]: 181.6 IU/L
Na [4]: 142.6 meq/L
PL [4]: 134.8 mg/dL
RALB [4]: 3.1 g/dL
TBIL [4]: 0.004 mg/dL
TC [4]: 64 mg/dL
TG [4]: 131 mg/dL
TP [4]: 6.1 g/dL
gamma-GTP [4]: 1 IU/L
TERMINAL_BW [5]: 226.8 g
APTT [5]: 22.4 s
Bas [5]: 0%
Eos [5]: 1.2%
Fbg [5]: 291.2 mg/dL
Hb [5]: 13.4 g/dL
Ht [5]: 38.4%
Lym [5]: 84.4%
MCH [5]: 21.1 pg
MCHC [5]: 35%
MCV [5]: 60.2 fL
Mono [5]: 2.8%
Neu [5]: 10.6%
PT [5]: 16.2 s
Plat [5]: 131.5 x10_4/uL
RBC [5]: 636.8 x10_4/ul
Ret [5]: 6%
WBC [5]: 103.7 x10_2/uL
KIDNEY_L [5]: 1 g
KIDNEY_R [5]: 1 g
KIDNEY_TOTAL [5]: 1.9 g
LIVER [5]: 10.3 g
ALP [5]: 1513.6 IU/L
ALT [5]: 37.8 IU/L
AST [5]: 68.2 IU/L
BUN [5]: 15.6 mg/dL
CRE [5]: 0.1 mg/dL
Ca [5]: 10.7 mg/dL
Cl [5]: 106 meq/L
DBIL [5]: 0 mg/dL
GLC [5]: 175.4 mg/dL
IP [5]: 6.1 mg/dL
K [5]: 4.6 meq/L
LDH [5]: 166 IU/L
Na [5]: 140.4 meq/L
PL [5]: 140 mg/dL
RALB [5]: 3.1 g/dL
TBIL [5]: 0.008 mg/dL
TC [5]: 75.8 mg/dL
TG [5]: 106.4 mg/dL
TP [5]: 5.5 g/dL
gamma-GTP [5]: 1.6 IU/L
TERMINAL_BW [6]: 260.2 g
TERMINAL_BW [7]: 304.3 g
TERMINAL_BW [8]: 378.7 g
APTT [6]: 22.5 s
Bas [6]: 0%
Eos [6]: 0.8%
Fbg [6]: 310 mg/dL
Hb [6]: 13.5 g/dL
Ht [6]: 38.9%
Lym [6]: 88.8%
MCH [6]: 20.8 pg
MCHC [6]: 34.6%
MCV [6]: 60.2 fL
Mono [6]: 1.6%
Neu [6]: 7.8%
PT [6]: 16.7 s
Plat [6]: 122.1 x10_4/uL
RBC [6]: 647 x10_4/ul
Ret [6]: 5.6%
WBC [6]: 91 x10_2/uL
APTT [7]: 24.3 s
Bas [7]: 0%
Eos [7]: 1%
Fbg [7]: 257.6 mg/dL
Hb [7]: 14.4 g/dL
Ht [7]: 40.4%
Lym [7]: 89.8%
MCH [7]: 20.7 pg
MCHC [7]: 35.6%
MCV [7]: 58.2 fL
Mono [7]: 1.8%
Neu [7]: 6.8%
PT [7]: 16.1 s
Plat [7]: 121.1 x10_4/uL
RBC [7]: 694 x10_4/ul
Ret [7]: 4.7%
WBC [7]: 103.2 x10_2/uL
APTT [8]: 25.4 s
Bas [8]: 0%
Eos [8]: 1.6%
Fbg [8]: 293.8 mg/dL
Hb [8]: 15.4 g/dL
Ht [8]: 42.1%
Lym [8]: 87.4%
MCH [8]: 19.1 pg
MCHC [8]: 36.6%
MCV [8]: 52.3 fL
Mono [8]: 2.4%
Neu [8]: 8.2%
PT [8]: 16.2 s
Plat [8]: 107.1 x10_4/uL
RBC [8]: 805.4 x10_4/ul
Ret [8]: 2.3%
WBC [8]: 92.3 x10_2/uL
KIDNEY_L [6]: 1.1 g
KIDNEY_R [6]: 1.1 g
KIDNEY_TOTAL [6]: 2.1 g
KIDNEY_L [7]: 1.2 g
KIDNEY_R [7]: 1.3 g
KIDNEY_TOTAL [7]: 2.5 g
KIDNEY_L [8]: 1.4 g
KIDNEY_R [8]: 1.4 g
KIDNEY_TOTAL [8]: 2.8 g
LIVER [6]: 11.8 g
LIVER [7]: 12.3 g
LIVER [8]: 14.2 g
ALP [6]: 1472.6 IU/L
ALT [6]: 34.4 IU/L
AST [6]: 68.2 IU/L
BUN [6]: 17.8 mg/dL
CRE [6]: 0.2 mg/dL
Ca [6]: 10.6 mg/dL
Cl [6]: 106.2 meq/L
DBIL [6]: 0 mg/dL
GLC [6]: 174.4 mg/dL
IP [6]: 7 mg/dL
K [6]: 4.4 meq/L
LDH [6]: 178.2 IU/L
Na [6]: 141.4 meq/L
PL [6]: 144.6 mg/dL
RALB [6]: 3 g/dL
TBIL [6]: 0.004 mg/dL
TC [6]: 71.2 mg/dL
TG [6]: 146.8 mg/dL
TP [6]: 5.5 g/dL
gamma-GTP [6]: 1.6 IU/L
ALP [7]: 1293.4 IU/L
ALT [7]: 29.6 IU/L
AST [7]: 57.8 IU/L
BUN [7]: 16.8 mg/dL
CRE [7]: 0.2 mg/dL
Ca [7]: 10.9 mg/dL
Cl [7]: 106.2 meq/L
DBIL [7]: 0 mg/dL
GLC [7]: 179.4 mg/dL
IP [7]: 6.9 mg/dL
K [7]: 4.2 meq/L
LDH [7]: 109.2 IU/L
Na [7]: 142.2 meq/L
PL [7]: 142.6 mg/dL
RALB [7]: 3.1 g/dL
TBIL [7]: 0.01 mg/dL
TC [7]: 75 mg/dL
TG [7]: 103.4 mg/dL
TP [7]: 5.7 g/dL
gamma-GTP [7]: 2 IU/L
ALP [8]: 1007.4 IU/L
ALT [8]: 30.4 IU/L
AST [8]: 58.8 IU/L
BUN [8]: 16.6 mg/dL
CRE [8]: 0.2 mg/dL
Ca [8]: 10.5 mg/dL
Cl [8]: 106.8 meq/L
DBIL [8]: 0.004 mg/dL
GLC [8]: 168.4 mg/dL
IP [8]: 5.6 mg/dL
K [8]: 4.1 meq/L
LDH [8]: 158 IU/L
Na [8]: 143.2 meq/L
PL [8]: 134.2 mg/dL
RALB [8]: 3.1 g/dL
TBIL [8]: 0.006 mg/dL
TC [8]: 65.6 mg/dL
TG [8]: 141.2 mg/dL
TP [8]: 5.9 g/dL
gamma-GTP [8]: 1 IU/L
